According to ChEMBL document CHEMBL1201862, “PubChem BioAssay data set” (2004):
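Grown in 96-well plates, cells were treated for 48 hours with each compound at five concentrations. Insufficient inhibition: endpoint recorded as highest concentration tested. Abbreviation: GI50, concentration required for 50% inhibition of growth.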 Active and inactive are the calls of the source. Cut-off read from the data, not from the text of the source: active = GI50 up to about 1.1 µM and inactive = higher.

Assays:
Assay in all cases: NCI tumour cell line growth inhibition, 48 h
MOLT-4 = system: MOLT-4
Malme-3M = system: Malme-3M
HCC 2998 = system: HCC 2998
TK-10 = system: TK-10
A549 = system: A549
CCRF-CEM = system: CCRF-CEM
MDA-N = system: MDA-N
MDA-MB-435 = system: MDA-MB-435
HOP-62 = system: HOP-62
KM12 = system: KM12
CAKI-1 = system: CAKI-1
SNB-19 = system: SNB-19
786-0 = system: 786-0
NCI-H522 = system: NCI-H522
MDA-MB-231 = system: MDA-MB-231
EKVX = system: EKVX
Hs-578T = system: Hs-578T
PC-3 = system: PC-3
SK-MEL-5 = system: SK-MEL-5

Measured: GI50

CC(=O)N(CN1C(=O)CCC1C(=O)O)c1ccc(C)cc1 (centres undefined)
inactive: MOLT-4 > 100 µM | Malme-3M > 100 µM | HCC 2998 > 100 µM | TK-10 > 100 µM | A549 > 100 µM | CCRF-CEM > 100 µM | MDA-N > 100 µM | MDA-MB-435 > 100 µM | HOP-62 > 100 µM | KM12 > 100 µM | CAKI-1 > 100 µM | SNB-19 > 100 µM | 786-0 > 100 µM | NCI-H522 > 100 µM | MDA-MB-231 > 100 µM | EKVX > 100 µM | Hs-578T > 100 µM | PC-3 > 100 µM | SK-MEL-5 > 100 µM

CN1CCC2(CC1)/C(=N/C1CCCCC1)NC(=O)N2c1ccccc1
inactive: MOLT-4 > 100 µM | Malme-3M > 100 µM | HCC 2998 > 100 µM | TK-10 > 100 µM | A549 > 100 µM | CCRF-CEM > 100 µM | HOP-62 > 100 µM | KM12 > 100 µM | SNB-19 > 100 µM | 786-0 > 100 µM | MDA-MB-231 > 100 µM | EKVX > 100 µM | Hs-578T > 100 µM | SK-MEL-5 > 100 µM

CN(C)N1C(=O)SCC(c2ccccc2)(c2ccccc2)C1=O
inactive: MOLT-4 > 100 µM | Malme-3M > 100 µM | HCC 2998 > 100 µM | TK-10 > 100 µM | A549 68.2 µM | CCRF-CEM > 100 µM | MDA-N > 100 µM | MDA-MB-435 > 100 µM | HOP-62 > 100 µM | KM12 > 100 µM | CAKI-1 > 100 µM | SNB-19 > 100 µM | 786-0 > 100 µM | NCI-H522 84.5 µM | MDA-MB-231 > 100 µM | EKVX > 100 µM | Hs-578T > 100 µM | PC-3 > 100 µM | SK-MEL-5 > 100 µM

CC1(C)O[C@H]2OC(CO)C(OS(C)(=O)=O)[C@H]2O1 (some centres undefined)
inactive: Malme-3M > 100 µM | HCC 2998 > 100 µM | TK-10 > 100 µM | A549 > 100 µM | CCRF-CEM > 100 µM | MDA-N > 100 µM | MDA-MB-435 > 100 µM | HOP-62 > 100 µM | KM12 > 100 µM | CAKI-1 > 100 µM | SNB-19 > 100 µM | 786-0 > 100 µM | NCI-H522 48.1 µM | MDA-MB-231 > 100 µM | EKVX > 100 µM | Hs-578T > 100 µM | PC-3 > 100 µM | SK-MEL-5 > 100 µM

C=C[C@@H]1OC(=O)O[C@H]1CO
inactive: MOLT-4 > 100 µM | Malme-3M > 100 µM | TK-10 > 100 µM | A549 > 100 µM | CCRF-CEM > 100 µM | MDA-N > 100 µM | MDA-MB-435 > 100 µM | HOP-62 > 100 µM | KM12 > 100 µM | SNB-19 > 100 µM | 786-0 > 100 µM | MDA-MB-231 > 100 µM | EKVX > 100 µM | Hs-578T > 100 µM | PC-3 > 100 µM | SK-MEL-5 > 100 µM

COC(C/C(=C/CO[Si](C(C)C)(C(C)C)C(C)C)C(=O)N(C(=O)OC(C)(C)C)c1ccccc1I)OC
inactive: MOLT-4 22.9 µM | HCC 2998 40.6 µM | TK-10 49 µM | A549 28.8 µM | CCRF-CEM > 10 µM | MDA-N 26.9 µM | MDA-MB-435 32.5 µM | HOP-62 57.7 µM | KM12 41.9 µM | CAKI-1 33.2 µM | SNB-19 56.4 µM | 786-0 28.4 µM | NCI-H522 2.77 µM | MDA-MB-231 > 10 µM | Hs-578T 83.4 µM | PC-3 23.6 µM | SK-MEL-5 56.2 µM

COc1cc(Cn2c3c(c4c(CN(C)C)c(O)ccc42)C(=O)c2ccccc2C3=O)cc(OC)c1
inactive: MOLT-4 24.4 µM | Malme-3M 23.2 µM | HCC 2998 17.9 µM | TK-10 28.7 µM | A549 15.1 µM | CCRF-CEM 24.3 µM | MDA-N 15.7 µM | MDA-MB-435 18.1 µM | HOP-62 15.7 µM | KM12 26.4 µM | CAKI-1 13 µM | SNB-19 18.7 µM | 786-0 12.5 µM | MDA-MB-231 17.7 µM | EKVX 20 µM | Hs-578T 19.1 µM | PC-3 21 µM | SK-MEL-5 11.9 µM

CSC(=S)N(C)c1nc(N(C)C)s[s+]1
inactive: MOLT-4 > 100 µM | Malme-3M > 100 µM | HCC 2998 > 100 µM | TK-10 > 100 µM | A549 51.5 µM | CCRF-CEM > 100 µM | HOP-62 > 100 µM | KM12 > 100 µM | CAKI-1 > 100 µM | SNB-19 > 100 µM | 786-0 > 100 µM | NCI-H522 > 100 µM | EKVX > 100 µM | SK-MEL-5 > 100 µM

O=C(O)CSc1nnc(/C=C/c2ccccc2)[nH]1
inactive: MOLT-4 > 100 µM | Malme-3M > 100 µM | HCC 2998 > 100 µM | TK-10 > 100 µM | A549 > 100 µM | CCRF-CEM > 100 µM | HOP-62 > 100 µM | KM12 > 100 µM | CAKI-1 > 100 µM | SNB-19 > 100 µM | 786-0 > 100 µM | NCI-H522 > 100 µM | EKVX > 100 µM | SK-MEL-5 > 100 µM
